Where two headings read alike, the source gives them in different places. Blank lines part the entries; values can stand above or below the molecule they belong to.
How the values were obtained:
[1] = target: T1, CIB1 and αIIb interaction (CIB1-GST : F-αIIb peptide) (Homo sapiens, UniProt Q99828); assay: FP assay, 1536-well qHTS format (primary and confirmatory screen); format: binding; conditions: for Curve Class (confirmatory screen) / CONFIRMATORY SCREEN Curve Class: qHTS curve class
T1 construct: made in house; host or cells: BL-21 plus RIL cells (E. coli)
T1 sequence (Q99828 1-191): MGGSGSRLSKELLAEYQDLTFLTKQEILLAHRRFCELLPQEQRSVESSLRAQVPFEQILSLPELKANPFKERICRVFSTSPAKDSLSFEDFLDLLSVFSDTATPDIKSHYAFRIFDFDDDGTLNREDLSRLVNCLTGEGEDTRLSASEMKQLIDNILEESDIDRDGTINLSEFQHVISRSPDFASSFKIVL

[2] = target: T2, GST-CIB1 : F-scrambled peptide (Homo sapiens, UniProt Q99828); assay: FP scrambled-peptide counter screen, 1536-well format; format: binding; conditions: for Curve Class (counterscreen) / COUNTERSCREEN Curve Class: qHTS curve class; for IC50: read-out: IC50 [μM] (counterscreen)
T2 construct: made in house; host or cells: BL-21 plus RIL cells (E. coli)
T2 sequence (Q99828 1-191): T1 sequence (Q99828 1-191)

[3] = Table S3, confirmatory screen, a negative sign marks inhibitory curves
[4] = Table S3, confirmatory screen, negative = inhibition
[5] = qHTS primary screen hits, Table S2, negative = inhibition
[6] = qHTS primary screen hits, Table S2, negative sign = inhibitory curve, several classes where COUNT > 1
[7] = qHTS primary screen hits, Table S2, read-out: IC50
[8] = Table S3, counterscreen, a negative sign marks inhibitory curves
[9] = Table S3, counterscreen, negative = inhibition
[10] = confirmatory screen, negative sign = inhibitory curve
[11] = qHTS FP screen hits, Table S2, negative = inhibition
[12] = qHTS FP screen hits, Table S2, one class per curve where COUNT > 1, negative sign = inhibitory curve
[13] = qHTS FP screen hits, Table S2, read-out: IC50
[14] = counterscreen, negative sign = inhibitory curve
[15] = Table S3, confirmatory screen, YES/NO call
[16] = Table S3, confirmatory screen, read-out: IC50 [μM] (confirmatory screen)

SMILES: CNc1nc2c(s1)C(c1c(F)cccc1Cl)CC(=O)N2.O=C(O)C(F)(F)F (stereo not shown) [NCGC00488265-02]
- Curve Class (confirmatory screen) [1, 3]: 4
- Efficacy (%) (confirmatory screen) [1, 4]: -12%
- Efficacy (%) [1, 5]: -65%
- Curve Class [1, 6]: -2.2
- IC50 [1, 7]: 56.2 µM
- Curve Class (counterscreen) [2, 8]: 4
- Efficacy (%) (counterscreen) [2, 9]: 0%

SMILES: NC(=O)C1CCN(c2ncc(Br)s2)CC1 [NCGC00184919-01]
- Confirm? (confirmatory screen) [1, 15]: YES
- Curve Class (confirmatory screen) [1, 3]: -2.1
- Efficacy (%) (confirmatory screen) [1, 4]: -112%
- IC50 [1, 16]: 50.1 µM
- Efficacy (%) [1, 11]: -123%
- Curve Class [1, 12]: -2.1
- IC50 [1, 13]: 39.8 µM
- Curve Class (counterscreen) [2, 8]: -2.1
- Efficacy (%) (counterscreen) [2, 9]: -127%
- IC50 ([2]; Table S3, counterscreen): 39.8 µM

SMILES: C[C@@H]1CC[C@]2(C)C3(C)CC[C@@]2(OC3=O)[C@@]12C[C@H](c1ccoc1)OC2=O [NCGC00180662-03]
- Confirm? (confirmatory screen) [1, 15]: YES
- Curve Class (confirmatory screen) [1, 3]: -1.2
- Efficacy (%) (confirmatory screen) [1, 4]: -44%
- IC50 [1, 16]: 7.1 µM
- Efficacy (%) [1, 11]: -33%
- Curve Class [1, 12]: -1.2
- IC50 [1, 13]: 10 µM
- Curve Class (counterscreen) [2, 8]: -1.2
- Efficacy (%) (counterscreen) [2, 9]: -44%
- IC50 ([2]; Table S3, counterscreen): 8.9 µM

SMILES: O=C(O)C(F)(F)F.O=C1CCCC2=C1C(c1ccn[nH]1)N=C(Nc1nc3ccccc3o1)N2 (stereo not shown) [NCGC00229725-01]
- Curve Class (confirmatory screen) [1, 3]: 4
- Efficacy (%) (confirmatory screen) [1, 4]: -29%
- Efficacy (%) [1, 5]: -32%
- Curve Class ([1]; qHTS primary screen hits, Table S2, negative sign = inhibitory curve): -2.2
- IC50 [1, 7]: 25.1 µM
- Curve Class (counterscreen) [2, 8]: 4
- Efficacy (%) (counterscreen) [2, 9]: -32%

SMILES: COc1cc2ccccc2cc1C(=O)N/C(S)=N/c1cc(C(=O)O)ccc1C.O=C(O)C(F)(F)F [NCGC00479324-01]
- CONFIRMATORY SCREEN Efficacy (%) ([1]; confirmatory screen): -38%
- CONFIRMATORY SCREEN Curve Class ([1]; confirmatory screen): 4
- Efficacy (%) [1, 11]: -25%
- IC50 [1, 13]: 12.6 µM
- COUNTERSCREEN Efficacy (%) ([2]; counterscreen): 12%
- COUNTERSCREEN Curve Class ([2]; counterscreen): 4

SMILES: O=[N+]([O-])c1ccc(O)c2ncccc12 [NCGC00160664-03]
- CONFIRMATORY SCREEN Efficacy (%) ([1]; confirmatory screen): 0%
- CONFIRMATORY SCREEN Curve Class ([1]; confirmatory screen): 4
- Efficacy (%) [1, 5]: -25%
- Curve Class [1, 6]: -1.4
- IC50 [1, 7]: 31.6 µM
- COUNTERSCREEN Efficacy (%) ([2]; counterscreen): -13%
- COUNTERSCREEN Curve Class ([2]; counterscreen): 4

Results, then the molecule that gave them:

- Efficacy (%) (confirmatory screen) ([1]; confirmatory screen): -85%
- Confirm? (confirmatory screen) ([1]; confirmatory screen, YES/NO): YES
- Curve Class (confirmatory screen) [1, 10]: -2.2
- Efficacy (%) [1, 11]: -40%
- Curve Class [1, 12]: -2.2
- IC50 [1, 13]: 39.8 µM
- Efficacy (%) (counterscreen) ([2]; counterscreen): -73%
- Curve Class (counterscreen) [2, 14]: -2.2
- IC50 ([2]; counterscreen): 44.7 µM
SMILES: Cc1coc2c1C(=O)C(=O)c1c-2ccc2c(C)cccc12 [NCGC00247624-03]

- Efficacy (%) (confirmatory screen) ([1]; confirmatory screen): -42%
- Confirm? (confirmatory screen) ([1]; confirmatory screen, YES/NO): YES
- Curve Class (confirmatory screen) [1, 10]: -2.2
- IC50 ([1]; confirmatory screen, read-out: IC50 [μM] (confirmatory screen)): 39.8 µM
- Efficacy (%) [1, 11]: -36%
- Curve Class [1, 12]: -1.2
- IC50 [1, 13]: 28.2 µM
- Efficacy (%) (counterscreen) ([2]; counterscreen): -32%
- Curve Class (counterscreen) [2, 14]: -2.2
- IC50 ([2]; counterscreen): 50.1 µM
SMILES: Oc1ccc2c(-c3c(-c4ccccn4)nn4c3CCC4)ccnc2c1 [NCGC00408881-01]

- Confirm? (confirmatory screen) [1, 15]: YES
- Curve Class (confirmatory screen) [1, 3]: -2.2
- Efficacy (%) (confirmatory screen) [1, 4]: -85%
- IC50 [1, 16]: 50.1 µM
- Efficacy (%) [1, 5]: -24%
- Curve Class [1, 6]: -1.4
- IC50 [1, 7]: 4.2 µM
- Curve Class (counterscreen) [2, 8]: -2.1
- Efficacy (%) (counterscreen) [2, 9]: -107%
- IC50 ([2]; Table S3, counterscreen): 79.4 µM
SMILES: Cn1cc(-c2[nH]c3cc(NC(=O)[C@H](N)C4CCCCC4)cc4c3c2C=NNC4=O)cn1 [NCGC00263132-02]
